Results as given in patent US12275961B2, “Method for utilizing engineered dendritic cells to induce gut-homing regulatory T cells and treat gut inflammation” (LOMA LINDA UNIVERSITY, priority 2015, dated 2025).
Values joined by “and” are separate entries in the source; they are usually repeats but may differ in a detail not shown here. Equal values may be shown once.

Experiments:
[1] = system: dextran sodium sulfate-induced inflammatory bowel disease; test: DSS-induced inflammatory bowel disease, six-group study (Example V); type: in vivo, mice
Excerpt: Then, the efficacy of the disclosed agents and method was confirmed in an additional study. […] Injections were made at day 7 post-disease induction by dextran sodium sulfate. All mice were sacrificed at day 10.

[2] = system: foxp3 expression in activated T cells; test: foxp3 expression in T cells of splenocytes activated by anti-CD3/CD28 beads with exogenous calcitriol; type: cell-based, mouse; conditions: 72 hours
Excerpt: The naive mouse splenocytes can be cultured for 3 days with 1,25 Vitamin D (100 U/ml, Sigma-Aldrich) in the presence of human (h) IL-2 (50 U/ml) in complete RPMI 1640 medium (10% FBS; HyClone). The cells were harvested and stained for the FoxP3 expression with an anti-FoxP3 Ab (FJK-16s; eBioscience) and CCR9 expression.
A supraphysiological concentration of the active vitamin D metabolite, 1,25[OH]2D (calcitriol), may be necessary for calcitriol to induce foxp3 expression during T cell priming. Foxp3 is a protein that is involved in the regulatory pathway in the development and function of regulatory T cells. To determine whether a supraphysiological concentration is necessary, foxp3 expression in T cells during T cell activation in the presence of exogenous calcitriol can be examined. Splenocytes can be activated by anti-CD3/CD28 magnetic beads. In some cultures, 1,25[OH]2D can be added at a low (20 nM) or high (100 nM) concentration. Cells can be cultured for 72 hours and analyzed for foxp3 expression using flow cytometry. Flow cytometry can be performed by harvesting transduced mCYP27B1-positive DCs, washing them in PBS, resuspending them in the FACS buffer, and analyzing them for GFP expression on a flow cytometer. […] The normal range of human calcitriol serum concentration is 16˜56 pg/ml (0.038 nM 0.13 nM). […]

[3] = some patients; cited from earlier work
[4] = injection at day 7 post-DSS, sacrifice day 10

C=C1C(=CC=C2CCC[C@]3(C)[C@@H]2CC[C@@H]3[C@H](C)CCCC(C)(C)O)C[C@@H](O)C[C@@H]1O [calcitriol, (1R,3S)-5-[2-[(1R,3aR,7aS)-1-[(2R)-6-hydroxy-6-methyl-heptan-2-yl]-7a-methyl-2,3,3a, 5,6,7-hexahydro-1H-inden-4-ylidene]ethylidene]-4-methylidene-cyclohexane-1,3-diol]
increase in serum calcium ([1]; calcitriol 200 ng/day/mouse intraperitoneal): more than 30%
colon lesions / mucosal integrity [1, 4]: did improve colon mucosal integrity
hypercalcemia [1, 4]: severe hypercalcemia
body weight loss ([1]; injection at day 7 post-DSS, sacrifice day 10, calcitriol 200 ng/day/mouse intraperitoneal): failed to prevent body weight loss
foxp3 expression in activated T cells ([2]; 20 nM): slightly up regulated
foxp3 expression in activated T cells ([2]; 100 nM): significantly augment
serum calcitriol level tolerated without dose-limiting toxicity (hypercalcemia) [3]: up to 300 pg/ml and ≤ 0.72 nM
